Measurements published in patent EP0390111B1 (MERRELL DOW PHARMACEUTICALS INC., priority 1989, dated 1990).

Legend:
[1] = biological target: T1, adenosine A-2 receptors (Rattus norvegicus, UniProt P30543); assay: Test for affinity for brain adenosine A-2 receptors ([3H]NECA competition, striatal membranes); format: binding; details: rat brain striatum membranes, [3H]NECA 94 nM, 25°C, 60 minutes; read-out: A-2 Receptor Ki
T1 construct: from tissue; host or cells: rat brain striatum membranes (young male C-D strain rats, Charles River)
T1 sequence (P30543 whole entry): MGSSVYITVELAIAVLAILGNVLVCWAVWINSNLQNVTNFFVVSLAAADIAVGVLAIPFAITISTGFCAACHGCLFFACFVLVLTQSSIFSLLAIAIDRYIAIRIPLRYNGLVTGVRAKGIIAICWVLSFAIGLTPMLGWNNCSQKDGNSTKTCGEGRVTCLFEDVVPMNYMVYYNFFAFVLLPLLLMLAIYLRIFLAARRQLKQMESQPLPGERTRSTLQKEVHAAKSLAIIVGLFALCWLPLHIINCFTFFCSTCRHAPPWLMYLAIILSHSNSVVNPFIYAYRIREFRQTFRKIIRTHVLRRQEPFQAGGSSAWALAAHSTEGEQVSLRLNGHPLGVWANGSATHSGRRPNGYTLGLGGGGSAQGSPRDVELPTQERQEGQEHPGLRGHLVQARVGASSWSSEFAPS
Method: Membranes for ligand binding are isolated from rat brain striatum. The tissue is homogenized in 20 vol. ice-cold 50 mM Tris-HCl buffer (pH 7.7) using a polytron (setting for 6 to 20 seconds). The homogenate is centrifuged at 50,000 x g for 10 minutes at 4°C. The pellet is again homogenized in a polytron in 20 vol. of buffer, and centrifuged as before. The pellet is finally resuspended in 40 vol. of 50 mM Tris-HCl (pH 7.7) per gram of original wet weight of tissue.
Incubations are carried out at 25°C for 60 minutes. Each tube is filtered through GF/B glass fiber filters using a vacuum. The filters are rinsed two times with 5 ml of the ice-cold buffer. […] The filters are counted by liquid scintillation spectrometry.
Specific binding of [3H]NECA is measured as the excess over blank runs in the presence of 100 µM 2-chloroadenosine. Total membrane-bound radioactivity is about 2.5% of that added to the test tubes. […] Specific binding to membranes is about 50% of the total bound.

[2] = biological target: T2, adenosine A-1 receptor (Rattus norvegicus, UniProt P25099); assay: biochemical
T2 sequence (P25099 1-326): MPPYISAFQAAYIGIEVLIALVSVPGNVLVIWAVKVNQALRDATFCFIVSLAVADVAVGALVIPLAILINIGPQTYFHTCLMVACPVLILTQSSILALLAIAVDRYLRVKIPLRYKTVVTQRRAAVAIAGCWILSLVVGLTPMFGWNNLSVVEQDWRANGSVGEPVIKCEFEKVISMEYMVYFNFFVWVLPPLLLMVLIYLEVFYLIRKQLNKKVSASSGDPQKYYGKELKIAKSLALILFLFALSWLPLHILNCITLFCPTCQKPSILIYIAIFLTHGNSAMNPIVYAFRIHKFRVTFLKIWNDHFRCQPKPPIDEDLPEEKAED

[3] = biological target: A-2 receptors; details: brain slice assay; cited from earlier work
[4] = test system: adenosine receptors; details: in vivo; cited from earlier work

CCCOC1=Nc2c(cnn2-c2ccccc2)C2=N[C@H](C)[C@@H](c3ccccc3)N12 [Compound 7, (2R-trans)-2,7-dihydro-2-methyl-3,7-diphenyl-5-propoxy-3H-imidazo[1,2-c]pyrazolo[4,3-e]pyrimidine]
Ki [1]: 14.2 µM | Ki [2]: 12.1 µM

CCCn1c(=O)c2[nH]c(-c3ccc(OCC(=O)O)cc3)nc2n(CCC)c1=O [XCC]
Ki [3]: 0.034 ± 0.013 µM

OC[C@H]1O[C@@H](n2cnc3c2N=CN2C[C@H](Cc4ccccc4)N=C32)[C@H](O)[C@@H]1O [Compound 13, (S)-7,8-dihydro-3-(β-D-ribofuranosyl)-8-(phenylmethyl)-3H-diimidazo[1,2-c:4',5'-e]pyrimidine]
Ki [1]: 10.6 µM | Ki [2]: 4.5 µM

C1=Nc2c(ncn2-c2ccccc2)C2=N[C@@H](Cc3ccccc3)CN12 [Compound 5, (S)-7,8-dihydro-3-phenyl-8-(phenylmethyl)-3H-diimidazo[1,2-c:4',5'-e]pyrimidine]
Ki [1]: > 199 µM | Ki [2]: 44.6 µM

C1=Nc2nc[nH]c2C2=N[C@@H](Cc3ccccc3)CN12 [Compound 10, (S)-7,8-dihydro-8-(phenylmethyl)-1H-diimidazo[1,2-c:4',5'-e]pyrimidine]
Ki [1]: > 199 µM | Ki [2]: 199 µM

CCCOC1=Nc2c(cnn2-c2ccccc2)C2=N[C@@H](Cc3ccccc3)CN12 [Compound 2, (S)-2,7-dihydro-7-phenyl-2-(phenylmethyl)-5-propoxy-3H-imidazo[1,2-c]pyrazolo[4,3-e]pyrimidine]
Ki [1]: 0.508 µM | Ki [2]: 2.68 µM

C1=Nc2nc[nH]c2C2=N[C@H](Cc3ccccc3)CN12 [Compound 9, (R)-7,8-dihydro-8-(phenylmethyl)-1H-diimidazo[1,2-c:4',5'-e]pyrimidine]
Ki [1]: > 199 µM | Ki [2]: 199 µM

C1=Nc2c(cnn2-c2ccccc2)C2=N[C@@H](Cc3ccccc3)CN12 [Compound 4, (S)-2,7-dihydro-7-phenyl-2-(phenylmethyl)-3H-imidazo[1,2-c]pyrazolo[4,3-e]pyrimidine]
Ki [1]: > 199 µM | Ki [2]: 10 µM

CCCn1c(=O)c2[nH]c(-c3ccc(OCC(=O)NCCN)cc3)nc2n(CCC)c1=O [XAC]
Ki [3]: 0.049 ± 0.017 µM | potency in antagonizing the effects of adenosine analogs on heart rate versus blood pressure [4]: much more potent in antagonizing the effects of adenosine analogs on heart rate than on blood pressure

OC[C@H]1O[C@@H](n2cnc3c2N=CN2C[C@@H](Cc4ccccc4)N=C32)[C@H](O)[C@@H]1O [Compound 14, (R)-7,8-dihydro-3-(β-D-ribofuranosyl)-8-(phenylmethyl)-3H-diimidazo[1,2-c:4',5'-e]pyrimidine]
Ki [1]: 46.8 µM | Ki [2]: 65 µM

CCCOC1=Nc2c(cnn2-c2ccccc2)C2=N[C@H](Cc3ccccc3)CN12 [Compound 1, (R)-2,7-dihydro-7-phenyl-2-(phenylmethyl)-5-propoxy-3H-imidazo[1,2-c]pyrazolo[4,3-e]pyrimidine]
Ki [1]: > 6.99 µM | Ki [2]: 1.24 µM

C1=Nc2c(ncn2-c2ccccc2)C2=N[C@H](Cc3ccccc3)CN12 [Compound 6, (R)-7,8-dihydro-3-phenyl-8-(phenylmethyl)-3H-diimidazo[1,2-c:4',5'-e]pyrimidine]
Ki [1]: 100 µM | Ki [2]: 8.4 µM

C1=Nc2c(cnn2-c2ccccc2)C2=N[C@H](Cc3ccccc3)CN12 [Compound 3, (R)-2,7-dihydro-7-phenyl-2-(phenylmethyl)-3H-imidazo[1,2-c]pyrazolo[4,3-e]pyrimidine]
Ki [1]: 25 µM | Ki [2]: 1.9 µM
